Data taken from US8629143B2, “Potassium channel modulators” (AbbVie Inc., priority 2009, dated 2014).

Target: T1, KCNQ 2/3 channels (HEK293 cells stably expressing human KCNQ2 and KCNQ3 subunits) (Homo sapiens, UniProt O43525+O43526)
T1 construct: expressed in transfected cells; host or cells: HEK293
Assay: KCNQ2/3 channel activation, thallium flux FLIPR assay with BTC-AM dye
Assay type: cell-based
Settings: for Emax: HEK293, maximum response relative to the response produced by 10 μM retigabine (set at 100%), read-out: Max. %; for EC50: HEK293 cells expressing human KCNQ2 and KCNQ3, thallium flux, FLIPR
Procedure, shortened: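 HEK293 cells stably expressing human KCNQ2/KCNQ3 were loaded with BTC-AM (3 μg/mL, 2 h, RT) and preincubated with compound for 4 min in pH 7.3 gluconate buffer containing 0.1 mM ouabain. Flux was triggered by 6 mM TlNO3/10 mM K2SO4 and read for 3 min; EC50 came from summed responses over basal, with maximum relative to 10 μM retigabine (100%).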

| SMILES | Emax | EC50 |
| --- | --- | --- |
| CC(C)c1nn(NC(=O)CC23CC4CC(CC(O)(C4)C2)C3)c(=O)c2ccccc12 [Example 61, 2-(3-hydroxyadamantan-1-yl)-N-(4-isopropyl-1-oxophthalazin-2(1H)-yl)acetamide] | 26% | > 10000 nM |
| O=C(Cc1ccc(Cl)cc1)Nn1nc(C2CCCCC2)c2ccccc2c1=O [Example 76, 2-(4-chlorophenyl)-N-(4-cyclohexyl-1-oxophthalazin-2(1H)-yl)acetamide] | 157% | 100 to 500 nM |
| COC(=O)c1ccc(-c2nn(NC(=O)Cc3ccc(Cl)cc3)c(=O)c3ccccc23)cc1 [Example 80, methyl 4-(3-{[(4-chlorophenyl)acetyl]amino}-4-oxo-3,4-dihydrophthalazin-1-yl)benzoate] | 80% | 100 to 500 nM |
| CC(C)(CC(=O)Nn1nc(-c2ccccc2)c2ccccc2c1=O)c1ccccc1 [Example 82, 3-methyl-N-(1-oxo-4-phenylphthalazin-2(1H)-yl)-3-phenylbutanamide] | 156% | 100 to 500 nM |
| O=C(Cc1ccc(Cl)cc1Cl)Nn1nc(-c2ccccc2)c2ccccc2c1=O [Example 83, 2-(2,4-dichlorophenyl)-N-(1-oxo-4-phenylphthalazin-2(1H)-yl)acetamide] | 13% | > 10000 nM |
| CC(C)(CC(=O)Nn1nc(-c2ccc(Br)cc2)c2ccccc2c1=O)c1ccccc1 [Example 85, N-[4-(4-bromophenyl)-1-oxophthalazin-2(1H)-yl]-3-methyl-3-phenylbutanamide] | 117% | 100 to 500 nM |
| O=C(CC1(C(F)(F)F)CCCC1)Nn1nc(-c2ccc(Cl)cc2)c2ccccc2c1=O [Example 87, N-[4-(4-chlorophenyl)-1-oxophthalazin-2(1H)-yl]-2-[1-(trifluoromethyl)cyclopentyl]acetamide] | 104% | 500 to 1000 nM |
| CC(C)(CC(=O)Nn1nc(-c2ccc(Cl)cc2)c2ccccc2c1=O)c1ccccc1 [Example 89, N-[4-(4-chlorophenyl)-1-oxophthalazin-2(1H)-yl]-3-methyl-3-phenylbutanamide] | 118% | 100 to 500 nM |
| O=C(Nn1nc(-c2ccc(Cl)cc2)c2ccccc2c1=O)C(F)c1ccccc1 (centres unmarked) [Example 90, N-[4-(4-chlorophenyl)-1-oxophthalazin-2(1H)-yl]-2-fluoro-2-phenylacetamide] | 1% | > 10000 nM |
| O=C(Cc1cccnc1)Nn1nc(-c2ccc(Cl)cc2)c2ccccc2c1=O [Example 93, N-[4-(4-chlorophenyl)-1-oxophthalazin-2(1H)-yl]-2-(pyridin-3-yl)acetamide] | 149% | 1000 to 10000 nM |
| O=C(Cc1cccc(OC(F)(F)F)c1)Nn1nc(-c2ccc(Cl)cc2)c2ccccc2c1=O [Example 98, N-[4-(4-chlorophenyl)-1-oxophthalazin-2(1H)-yl]-2-[3-(trifluoromethoxy)phenyl]acetamide] | 80% | 500 to 1000 nM |
| O=C(Cc1ccc(C(F)(F)F)cc1)Nn1nc(-c2ccc(Cl)cc2)c2ccccc2c1=O [Example 99, N-[4-(4-chlorophenyl)-1-oxophthalazin-2(1H)-yl]-2-[4-(trifluoromethyl)phenyl]acetamide] | 81% | 500 to 1000 nM |
| O=C(Cc1cccc(C(F)(F)F)c1)Nn1nc(-c2ccc(Cl)cc2)c2ccccc2c1=O [Example 100, N-[4-(4-chlorophenyl)-1-oxophthalazin-2(1H)-yl]-2-[3-(trifluoromethyl)phenyl]acetamide] | 79% | 100 to 500 nM |
| CN(C)c1ccc(CC(=O)Nn2nc(-c3ccc(Cl)cc3)c3ccccc3c2=O)cc1 [Example 101, N-[4-(4-chlorophenyl)-1-oxophthalazin-2(1H)-yl]-2-[4-(dimethylamino)phenyl]acetamide] | 57% | 1000 to 10000 nM |
| O=C(Cc1ccc(Br)cc1)Nn1nc(-c2ccc(Cl)cc2)c2ccccc2c1=O [Example 102, 2-(4-bromophenyl)-N-[4-(4-chlorophenyl)-1-oxophthalazin-2(1H)-yl]acetamide] | 112% | 500 to 1000 nM |
| O=C(Cc1cccc(Cl)c1)Nn1nc(-c2ccc(Cl)cc2)c2ccccc2c1=O [Example 103, 2-(3-chlorophenyl)-N-[4-(4-chlorophenyl)-1-oxophthalazin-2(1H)-yl]acetamide] | 140% | 100 to 500 nM |

Continued, values first:

| Emax | EC50 | SMILES |
| --- | --- | --- |
| 149% | < 100 nM | CC(C)(C)c1nn(NC(=O)CC2CCCC2)c(=O)c2ccccc12 [Example 62, N-(4-tert-butyl-1-oxophthalazin-2(1H)-yl)-2-cyclopentylacetamide] |
| 157% | < 100 nM | CC(C)(C)c1nn(NC(=O)CC(C)(C)c2ccccc2)c(=O)c2ccccc12 [Example 64, N-(4-tert-butyl-1-oxophthalazin-2(1H)-yl)-3-methyl-3-phenylbutanamide] |
| 151% | 100 to 500 nM | CC(C)(C)c1nn(NC(=O)Cc2ccc(Cl)cc2)c(=O)c2ccccc12 [Example 65, N-(4-tert-butyl-1-oxophthalazin-2(1H)-yl)-2-(4-chlorophenyl)acetamide] |
| 148% | < 100 nM | O=C(C[C@@H]1C[C@@H]2CC[C@H]1C2)Nn1nc(C2CCC2)c2ccccc2c1=O [Example 66, 2-[(1S,2S,4R)-bicyclo[2.2.1]hept-2-yl]-N-(4-cyclobutyl-1-oxophthalazin-2(1H)-yl)acetamide] |
| 166% | < 100 nM | O=C(C[C@@H]1C[C@@H]2C=C[C@H]1C2)Nn1nc(C2CCC2)c2ccccc2c1=O [Example 67, 2-[(1S,2S,4S)-bicyclo[2.2.1]hept-5-en-2-yl]-N-(4-cyclobutyl-1-oxophthalazin-2(1H)-yl)acetamide] |
| 138% | < 100 nM | O=C(Cc1cc(F)cc(F)c1)Nn1nc(C2CCC2)c2ccccc2c1=O [Example 69, N-(4-cyclobutyl-1-oxophthalazin-2(1H)-yl)-2-(3,5-difluorophenyl)acetamide] |
| 124% | 100 to 500 nM | O=C(Cc1ccc(Cl)cc1)Nn1nc(C2CCC2)c2ccccc2c1=O [Example 70, 2-(4-chlorophenyl)-N-(4-cyclobutyl-1-oxophthalazin-2(1H)-yl)acetamide] |
| 130% | < 100 nM | O=C(Cc1ccc(Cl)cc1)Nn1nc(C2CCCC2)c2ccccc2c1=O [Example 72, 2-(4-chlorophenyl)-N-(4-cyclopentyl-1-oxophthalazin-2(1H)-yl)acetamide] |
| 142% | < 100 nM | O=C(Cc1cc(F)cc(F)c1)Nn1nc(C2CCCC2)c2ccccc2c1=O [Example 73, N-(4-cyclopentyl-1-oxophthalazin-2(1H)-yl)-2-(3,5-difluorophenyl)acetamide] |
| 243% | < 100 nM | O=C(CC12CC3CC(CC(C3)C1)C2)Nn1nc(C2CCCCC2)c2ccccc2c1=O [Example 75, 2-(adamantan-1-yl)-N-(4-cyclohexyl-1-oxophthalazin-2(1H)-yl)acetamide] |
| 145% | < 100 nM | O=C(Cc1cc(F)cc(F)c1)Nn1nc(C2CCCCC2)c2ccccc2c1=O [Example 77, N-(4-cyclohexyl-1-oxophthalazin-2(1H)-yl)-2-(3,5-difluorophenyl)acetamide] |
| 166% | < 100 nM | CC1(CC(=O)Nn2nc(-c3ccc(Cl)cc3)c3ccccc3c2=O)CCCC1 [Example 86, N-[4-(4-chlorophenyl)-1-oxophthalazin-2(1H)-yl]-2-(1-methylcyclopentyl)acetamide] |
